# Measured values as given in patent US20050220819A1, “Novel binding epitopes for helicobacter pylori and use thereof” (priority 2002, published 2005).
# “Also recorded” adds a separate entry of the source.
# Experiments:
# Helicobacter pylori [1] = assay: TLC bacterial overlay assay: binding of radiolabeled Helicobacter pylori to glycosphingolipids, neoglycolipids and glycolipid derivatives on thin-layer plates; settings: for binding activity of neoglycolipids with regard to Helicobacter pylori (in words): oligosaccharides reductively aminated to lipid anchor (4-hexadecylaniline); for binding activity of neoglycolipids with regard to Helicobacter pylori (in words) / binding of glycolipid derivatives with regard to Helicobacter pylori (in words): TLC overlay assay; for binding of Helicobacter pylori to purified glycosphingolipids (in words): strain 032, overlay assay on thin-layer plates
# [2] = test system: Helicobacter pylori binding to human gastrointestinal cell lines; settings: Simon et al., 1999; cited from earlier work
# Helicobacter pylori [3] = settings: Mysore et al., 2000; cited from earlier work
molecule,measurement,setting,value
CC(=O)N[C@H]1[C@H](OC[C@H]2OC(O)[C@H](O)[C@@H](O)[C@H]2O)O[C@H](CO)[C@@H](O[C@@H]2O[C@H](CO)[C@H](O)[C@H](O[C@@H]3O[C@H](CO)[C@@H](O)[C@H](O)[C@H]3NC(C)=O)[C@H]2O)[C@@H]1O (stereo partly shown) [GlcNAcβ3Galβ4GlcNAcβ6Gal],binding activity of neoglycolipids with regard to Helicobacter pylori (in words),Helicobacter pylori [1],some binding activity; also recorded: strong binding activity
CC(=O)NC1C(O)OC(COC2OC(CO)C(OC3OC(CO)C(O)C(OC4OC(CO)C(O)C(O)C4NC(C)=O)C3O)C(O)C2NC(C)=O)C(O)C1O (stereo not shown) [GlcNAcβ3Galβ4GlcNAcα6GlcNAc],binding activity of neoglycolipids with regard to Helicobacter pylori (in words),Helicobacter pylori [1],weakly binding or inactive
same,binding activity of neoglycolipids with regard to Helicobacter pylori (in words),Helicobacter pylori [1]; listed as GlcNAcα3Galβ4GlcNAcα6GlcNAc,inactive or very weakly active
CNC(=O)C1OC(OC2C(O)C(CO)OC(OC3C(CO)OC(OCC4OC(O)C(NC(C)=O)C(O)C4O)C(NC(C)=O)C3O)C2O)C(O)C(O)C1O (stereo not drawn) [Glc(A-methylamide)β3Galβ4GlcNAcβ6GlcNAc],binding activity of neoglycolipids with regard to Helicobacter pylori (in words),Helicobacter pylori [1],strong binding activity
CC(=O)N[C@H]1[C@H](OC[C@H]2OC(O)[C@H](NC(C)=O)[C@@H](O)[C@@H]2O)O[C@H](CO)[C@@H](O[C@@H]2O[C@H](CO)[C@H](O)[C@H](O[C@@H]3O[C@H](CO)[C@@H](O)[C@H](O)[C@H]3NC(C)=O)[C@H]2O)[C@@H]1O (stereo partly shown) [GlcNAcβ3Galβ4GlcNAcβ6GlcNAc],binding activity of neoglycolipids with regard to Helicobacter pylori (in words),Helicobacter pylori [1],high affinity binding; also recorded: strong binding activity
GlcAβ3GalNAcβ4GlcAβ3GalNAcβ4GlcAβ3GalNAc,binding activity of neoglycolipids with regard to Helicobacter pylori (in words),Helicobacter pylori [1],clear binding activity
Glcβ3Galβ4GlcNAcβ3Galβ4GlcβCer,binding of glycolipid derivatives with regard to Helicobacter pylori (in words),Helicobacter pylori [1],binding active
same,binding strength towards H. pylori when comparing dilution series of glycolipids on TLC (in words),Helicobacter pylori [1],strong binding
CC(=O)NC1C(OC2C(O)C(CO)OC(OC3C(CO)OC(O)C(O)C3O)C2O)OC(CO)C(OC2OC(CO)C(O)C(OC3OC(C(=O)O)C(O)C(O)C3O)C2O)C1O (stereo not shown) [GlcAβ3Galβ4GlcNAcβ3Galβ4Glc],binding activity of neoglycolipids with regard to Helicobacter pylori (in words),Helicobacter pylori [1],clear binding activity
CC(=O)N[C@H]1[C@H](OC[C@H]2OC(O)[C@H](NC(C)=O)[C@@H](O)[C@@H]2O)O[C@H](CO)[C@@H](O[C@@H]2O[C@H](CO)[C@H](O)[C@H](O)[C@H]2O)[C@@H]1O (stereo partly shown) [Galβ4GlcNAcβ6GlcNAc],binding activity of neoglycolipids with regard to Helicobacter pylori (in words),Helicobacter pylori [1],clear binding activity
CC(=O)NC1C(O)OC(CO)C(OC2OC(CO)C(O)C(OC3OC(CO)C(O)C(O)C3NC(C)=O)C2O)C1O (stereo not shown) [GlcNAcβ3Galβ4GlcNAc],binding activity of neoglycolipids with regard to Helicobacter pylori (in words),Helicobacter pylori [1],weakly binding or inactive
"Galα3Galβ4GlcNAcβ3Galβ4Glcβ1Cer [No. 13, reference compound]",binding of Helicobacter pylori to purified glycosphingolipids (in words),Helicobacter pylori [1],binding-active
maltoheptaose [reference compound],binding activity of neoglycolipids with regard to Helicobacter pylori (in words),Helicobacter pylori [1],weakly binding or inactive
"GalNAcβ3Galα3Galβ4GlcNAcβ3Galβ4Glcβ1Cer [No. 25, reference compound]",binding of Helicobacter pylori to purified glycosphingolipids (in words),Helicobacter pylori [1],non-binding
CC(=O)N[C@H]1[C@H](OC[C@H]2O[C@@H](O[C@H]3[C@H](O)[C@@H](O)C(O)O[C@@H]3CO)[C@H](O)[C@@H](O)[C@H]2O)O[C@H](CO)[C@@H](O[C@@H]2O[C@H](CO)[C@H](O)[C@H](O[C@@H]3O[C@H](CO)[C@@H](O)[C@H](O)[C@H]3NC(C)=O)[C@H]2O)[C@@H]1O (stereo partly shown) [GlcNAcβ3Galβ4GlcNAcβ6Galβ4Glc],binding activity of neoglycolipids with regard to Helicobacter pylori (in words),Helicobacter pylori [1],weakly binding or inactive; also recorded: binding activity was strongly reduced
CC(=O)NC1C(O)OC(CO)C(OC2OC(CO)C(O)C(OC3OC(CO)C(OC4OC(CO)C(O)C(O)C4NC(C)=O)C(O)C3NC(C)=O)C2O)C1O (stereo not shown) [GalNAcβ4GlcNAcβ3Galβ4GlcNAc],binding activity of neoglycolipids with regard to Helicobacter pylori (in words),Helicobacter pylori [1],clear binding activity
Glc(A-NH2)β3GalNAcβ4Glc(A-NH2)β3GalNAc,binding activity of neoglycolipids with regard to Helicobacter pylori (in words),Helicobacter pylori [1],strong binding activity
"NeuAcα3GalNAcβ3Galβ4GlcNAcβ3Galβ4Glcβ1Cer [No. 24, reference compound]",binding of Helicobacter pylori to purified glycosphingolipids (in words),Helicobacter pylori [1],non-binding
GlcAβ3Galβ4GlcNAcβ3Galβ4GlcβCer [reference compound],binding of glycolipid derivatives with regard to Helicobacter pylori (in words),Helicobacter pylori [1],binding active
CC(=O)NC1C(OC2C(O)C(CO)OC(OC3C(CO)OC(O)C(O)C3O)C2O)OC(CO)C(OC2OC(CO)C(O)C(OC3OC(CO)C(O)C(O)C3O)C2O)C1O (stereo not shown) [Galα3Galβ4GlcNAcβ3Galβ4Glc],binding activity of neoglycolipids with regard to Helicobacter pylori (in words),Helicobacter pylori [1],clear binding activity
Glc(A-benzylamide)β3 Galβ4GlcNAcβ3Galβ4GlcβCer,binding of glycolipid derivatives with regard to Helicobacter pylori (in words),Helicobacter pylori [1],binding active
same,binding strength towards H. pylori when comparing dilution series of glycolipids on TLC (in words),Helicobacter pylori [1],binding effectively
sialyl-lactose,inhibition of Helicobacter pylori binding to human gastrointestinal cell lines,[2],inhibits
same,efficacy in rhesus monkey animal model of the infection,Helicobacter pylori [3],effective
Glc(A-ethylamide)β3 Galβ4GlcNAcβ3Galβ4GlcβCer,binding of glycolipid derivatives with regard to Helicobacter pylori (in words),Helicobacter pylori [1],binding active
same,binding strength towards H. pylori when comparing dilution series of glycolipids on TLC (in words),Helicobacter pylori [1],about equally strong binders and best among the four amide derivatives
CC(=O)NC1C(OC2C(O)C(CO)OC(OC3C(CO)OC(OC4C(O)C(O)OC(CO)C4O)C(NC(C)=O)C3O)C2O)OC(CO)C(O)C1O (stereo not shown) [GlcNAcβ3Galβ4GlcNAcβ3Man],binding activity of neoglycolipids with regard to Helicobacter pylori (in words),Helicobacter pylori [1],clear binding activity
GlcAβ3Galβ4GlcNAcβ6GlcNAc,binding activity of neoglycolipids with regard to Helicobacter pylori (in words),Helicobacter pylori [1],clear binding activity
"GalNAcβ3Galβ4GlcNAcβ3Galβ4Glcβ1Cer [No. 11, reference compound]",binding of Helicobacter pylori to purified glycosphingolipids (in words),Helicobacter pylori [1],binding was also found
CC(=O)N[C@H]1[C@H](O[C@H]2[C@@H](O)[C@@H](CO)O[C@@H](O[C@H]3[C@H](O)[C@@H](O)C(O)O[C@@H]3CO)[C@@H]2O)O[C@H](CO)[C@@H](O[C@@H]2O[C@H](CO)[C@H](O)[C@@H](O[C@@H]3O[C@H](CO)[C@@H](O)[C@H](O)[C@H]3NC(C)=O)[C@H]2O)[C@@H]1O (stereo partly shown) [GlcNAcβ3Galβ4GlcNAcβ3Galβ4Glc],binding activity of neoglycolipids with regard to Helicobacter pylori (in words),Helicobacter pylori [1],clear binding activity
Glc(A-methylamide)β3Galβ4GlcNAcβ3Galβ4GlcβCer,binding of glycolipid derivatives with regard to Helicobacter pylori (in words),Helicobacter pylori [1],binding active
same,binding strength towards H. pylori when comparing dilution series of glycolipids on TLC (in words),Helicobacter pylori [1],very strong binding
Glc(A-octadecylamide)β3Galβ4GlcNAcβ3Galβ4GlcβCer,binding of glycolipid derivatives with regard to Helicobacter pylori (in words),Helicobacter pylori [1],binding active
same,binding strength towards H. pylori when comparing dilution series of glycolipids on TLC (in words),Helicobacter pylori [1],binding effectively
